Patent US20240173389A1, “Compositions and Methods For Reducing Immune Intolerance” (LAPIX THERAPEUTICS, INC., priority 2021, published 2024)
Entries after “also recorded” stand apart in the source; their conditions may differ.

Tests used:
TLR2 = test: TNF-α production by splenocytes in response to TLR2 ligand PGN; assay type: cell-based, C57BL/6 mice; details: for TNF-α mean: 48 hours, OPLT 1.85 μg/ml, dexamethasone 100 μg/ml, rapamycin 625 μg/ml
Procedure: (§1) OPLT was dissolved in sterile PBS at 100 μM, and pH was adjusted to approximately 7.5. Splenocytes from naïve C57BL/6 mice were stained with CFSE, prepared, cultured, and dosed. Cells were seeded at 2×10^5 cells/well.
(§2) To evaluate the effects of OPLT on cytokine production by splenocytes in response to different TLR ligands, splenocytes were incubated with one of the following TLR ligands in triplicate: PGN, LPS, ODN CPG, dsRNA, or ssRNA, as per group assignment. Cells were then treated as follows: • Control: No treatment; • OPLT: Cells were dosed with 1.85 μg/ml; • Dexamethasone: Cells were dosed with 100 μg/ml; • Rapamycin: Cells were dosed with 625 μg/ml. Cells were incubated for 48 hours before collecting the supernatant for TNF-α analysis.
(§3) The supernatant was collected for TNF-α analysis by ELISA.

Splenocytes = test: Splenocyte culture with anti-CD3/anti-CD28 without antigen, Foxp3+/CD4+ by flow cytometry (Example 4); assay type: cell-based; details: 100 μM, three days, anti-CD3/anti-CD28, absence of any antigen
Procedure: Splenocytes were cultured for three days in presence of anti-CD3/anti-CD28 in presence of 100 μM PS or 100 μM OPLT in absence of any antigen.

B57BL6 Mice = test: Anti-GAA titer analysis in mice given GAA with OPLT or liposomal OBLT, then GAA re-challenge (Example 2); assay type: in vivo
Procedure: OPLT and OBLT were dissolved in sterile PBS, and pH was adjusted to approximately 7.5. Liposomal OBLT was prepared using DMPC. GAA in PBS was used as a control. For the tolerance induction (or treatment) period, GAA was co-mixed with OPLT or liposomal OBLT, or diluted in PBS before administration as per group assignment for each animal. For the re-challenge protocol, GAA was administered IV alone to all animals regardless of group assignment. GAA was administered with 5 mg of OPLT SC QW. […] For all SC groups, GAA was dosed at 1 μg/injection (1 μg/week). For PO groups, GAA was dosed at 0.14 μg/dose QD (approximately 1 μg/week).
The objective of the treatment phase was to test the ability of OPLT or liposomal OBLT to reduce the immunogenicity of GAA, as an antigen, compared to animals administered GAA alone. Animals were injected with GAA, GAA+OPLT, or GAA+liposomal OBTL SC QW for 4 weeks. Blood samples were collected for anti-GAA analysis after a one-week washout period from the last dose. For oral tolerance, animals were administered GAA or GAA+liposomal OBLT PO, QD for 4 weeks. GAA was also administered SC QW to both groups during the treatment period. Blood samples were collected for anti-GAA titer analysis after a one-week washout period from the last dose.
The objective of the re-challenge phase of the study was to evaluate the duration of tolerance. […] After the washout period, animals were injected with (1 μg) GAA SC QW for 2 weeks. Blood samples were collected one week after each injection for anti-GAA titer analysis.

TLR4 = test: TNF-α production by splenocytes in response to TLR4 ligand LPS; assay type: cell-based, C57BL/6 mice; details: for TNF-α mean: 48 hours, OPLT 1.85 μg/ml, dexamethasone 100 μg/ml, rapamycin 625 μg/ml
Procedure: as §1, §2, §3

[1] = system: RAW264.7 mouse monocyte macrophage cells; test: SAR screen in RAW 264.7 cells with FVIII antigen, TNF-α ELISA (Example 5); assay type: cell-based; details: free compounds dosed in mM range, FVIII antigen
From the text: RAW264.7 mouse monocyte macrophage cells were exposed to an increasing concentration of selected compounds in the presence of human plasma-derived FVIII as a model antigen protein. TNF-α and TGF-β production were monitored.
All molecules were formulated in RPMI media in aseptic conditions. The pH was adjusted to approximately 7.5 before dosing cells. 1,2-dimyristoyl-sn-glycero-3-phosphocholine (DM PC):PS liposomes were made at 70:30 molar ratio to make “PS” liposomes.
RAW 264.7 cells were prepared, cultured, and dosed. Cells were seeded at 4×10^5 cells/well. OPLS, OPLT and L-homocysteic acid (LHA) were dosed at 100, 85, 70, 60, 50, 30, 10, 3, 1, 0.3, 0.1, 0.03 and 0.01 mM, or at 100, 85, 70, 60, 50, 30, 10, 3 and 1 mM, as indicated. O-Benzyl-L-serine (OBLS), S-phenyl-L-cysteine (SPLC), S-benzyl-L-cysteine (SBLC) and OBLT were dosed at 100, 85, 70, 60, 50, 30, 10, 3, 1, 0.3, 0.1, 0.03, 0.01, 0.003 and 0.001 μM. Finally, 100 μl of 40 μg/ml of FVIII as a sample antigen was added to each cell. LPS and free protein were used as positive and baseline controls, respectively. TNF-α and TGF-β ELISA were conducted as per the manufacturer's instructions (R & D Systems).

TLR7 = test: TNF-α production by splenocytes in response to TLR7 ligand ssPolyU; assay type: cell-based, C57BL/6 mice; details: for TNF-α mean: 48 hours, OPLT 1.85 μg/ml, dexamethasone 100 μg/ml, rapamycin 625 μg/ml
Procedure: as §1, §2, §3

TLR3 = test: TNF-α production by splenocytes in response to TLR3 ligand poly(I:C); assay type: cell-based, C57BL/6 mice; details: for TNF-α mean: 48 hours, OPLT 1.85 μg/ml, dexamethasone 100 μg/ml, rapamycin 625 μg/ml
Procedure: as §1, §2, §3

**Q.** N[C@@H](Cc1ccc(OP(=O)(O)O)cc1)C(=O)O [OPLT, O-phospho-L-tyrosine] was tested. Which TNF-α mean (TLR2; PGN 0 ng/ml) did it give?
**A.** 0 pg/mL

**Q.** What about the TNF-α mean (TLR2; PGN 1 ng/ml, CTL 730) of the same compound?
**A.** 445 pg/mL

**Q.** What about the TNF-α mean (TLR2; PGN 10 ng/ml, CTL 725) of the same compound?
**A.** 613 pg/mL

**Q.** And the TNF-α mean (TLR2; PGN 100 ng/ml, CTL 834)?
**A.** 827 pg/mL

**Q.** And the “effect on splenocytes' TNF-α response to the TLR2 ligand PGN (in words)” value (TLR2; PGN 1, 10, 100 ng/ml, compared to control)?
**A.** statistically significant reduction in TNF-α in the low PGN dose group (1 ng/ml), but not the mid or high PGN dose group

**Q.** And the “increase in Foxp3+/CD4+ compared to control” value (Splenocytes)?
**A.** 118%

**Q.** And the “animals that developed anti-GAA titers” value (B57BL6 Mice; SC QW 4 weeks, 5 mg OPLT + GAA 1 μg, after one-week washout, controls 6/6)?
**A.** 4/6

**Q.** What about the “anti-GAA titers versus control groups” value (B57BL6 Mice; SC QW 4 weeks, OPLT 5 mg, liposomal OBLT 50 μM (1.3 μg OBLT/injection), after one-week washout) of the same compound?
**A.** statistically lower than the controls and comparators

**Q.** And the “immune response to GAA re-challenge” value (B57BL6 Mice; SC treatment group, weeks 1 and 2 of re-challenge, statistically significant at week 2 only)?
**A.** did not develop a robust immune response

**Q.** And the TNF-α mean (TLR4; LPS 0 ng/ml)?
**A.** 0 pg/mL

**Q.** What about the TNF-α mean (TLR4; LPS 1 ng/ml, CTL 143) of the same compound?
**A.** 116 pg/mL

**Q.** What about the TNF-α mean (TLR4; LPS 10 ng/ml, CTL 840) of the same compound?
**A.** 676 pg/mL

**Q.** And the TNF-α mean (TLR4; LPS 100 ng/ml, CTL 1091)?
**A.** 838 pg/mL

**Q.** What about the “effect on splenocytes' TNF-α response to the TLR4 ligand LPS (in words)” value (TLR4; compared to control at all doses, 10 μM OPLT) of the same compound?
**A.** did not abrogate splenocytes' response to LPS

**Q.** And the “TNF-α production (suppression) versus OPLS” value [1]?
**A.** suppressed TNF-α production at a lower dose than OPLS; also recorded: more potent inhibitors of TNF-α

**Q.** And the TNF-α mean (TLR7; Poly U 0 ng/ml)?
**A.** 0 pg/mL

**Q.** And the TNF-α mean (TLR7; Poly U 1 ng/ml, CTL 44)?
**A.** 36 pg/mL

**Q.** What about the TNF-α mean (TLR7; Poly U 10 ng/ml, CTL 51) of the same compound?
**A.** 40 pg/mL

**Q.** What about the TNF-α mean (TLR7; Poly U 100 ng/ml, CTL 229) of the same compound?
**A.** 43 pg/mL

**Q.** And the “effect on splenocytes' TNF-α response to the TLR7 ligand Poly U (in words)” value (TLR7; high dose of Poly U, statistically significant)?
**A.** reduced splenocytes' response to a high dose of the TLR7 ligand Poly U

**Q.** And the TNF-α mean (TLR3; PolyI:C 0 ng/ml)?
**A.** 0 pg/mL

**Q.** What about the TNF-α mean (TLR3; PolyI:C 1 ng/ml, CTL 0) of the same compound?
**A.** 0 pg/mL

**Q.** And the TNF-α mean (TLR3; PolyI:C 10 ng/ml, CTL 109)?
**A.** 0 pg/mL

**Q.** What about the TNF-α mean (TLR3; PolyI:C 100 ng/ml, CTL 162) of the same compound?
**A.** 0 pg/mL

**Q.** What about the “effect on splenocytes' TNF-α response to the TLR3 ligand poly(I:C) (in words)” value (TLR3; compared to control at all doses) of the same compound?
**A.** abrogated splenocytes' response to the TLR3 ligand poly(I:C)
